Experimental findings from ChEMBL document CHEMBL5233207, “Medicinal chemistry of the myeloid C-type lectin receptors Mincle, Langerin, and DC-SIGN” (RSC Med Chem, 2021) are described below.

Usually inhibition stands for the change of the read-out against control, counted positive when it falls. A high value points to strong suppression. Usually IC50 stands for the concentration that inhibits the measured activity by half. One may read the Ki as a measure of affinity in units of concentration, obtained from inhibition or displacement. Low readings indicate tighter binding, high ones weaker binding.

Assay [1] addresses T1, C-type lectin domain family 4 member M (Homo sapiens) (UniProt Q9H2X3).
T1 sequence (whole entry): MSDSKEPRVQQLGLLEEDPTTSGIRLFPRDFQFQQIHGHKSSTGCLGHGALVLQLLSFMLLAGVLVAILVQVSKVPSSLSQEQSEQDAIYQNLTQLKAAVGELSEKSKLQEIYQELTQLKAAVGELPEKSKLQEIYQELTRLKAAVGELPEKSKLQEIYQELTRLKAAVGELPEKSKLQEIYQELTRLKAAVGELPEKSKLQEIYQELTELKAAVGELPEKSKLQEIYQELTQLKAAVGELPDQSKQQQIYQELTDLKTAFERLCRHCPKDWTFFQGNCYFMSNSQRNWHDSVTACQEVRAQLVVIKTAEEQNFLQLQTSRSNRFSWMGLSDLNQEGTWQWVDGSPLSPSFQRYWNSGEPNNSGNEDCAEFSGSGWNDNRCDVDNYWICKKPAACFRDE
Kind of assay: Inhibition of DC-SIGN (unknown origin)- mediated fluorescent probe binding at 1 mM relative to control.

For assay [2], the target named is T1, C-type lectin domain family 4 member M (Homo sapiens). Kind of assay: Inhibition of DC-SIGN (unknown origin)- mediated fluorescent probe binding at 0.1 mM relative to control.
Assay [3] in a line: Inhibition of DC-SIGN (unknown origin)/ SARS CoV-2 spike glycoprotein interaction.
For assay [4], the target named is C-type lectin domain family 4 member K (Homo sapiens, UniProt Q9UJ71). Put plainly: Binding affinity to Langerin (unknown origin) by [19F] R2-filtered NMR assay.
The target in assay [5] is T2, C-type lectin domain family 4 member K (Mus musculus, UniProt Q8VBX4).
T2 sequence (Q8VBX4 whole entry): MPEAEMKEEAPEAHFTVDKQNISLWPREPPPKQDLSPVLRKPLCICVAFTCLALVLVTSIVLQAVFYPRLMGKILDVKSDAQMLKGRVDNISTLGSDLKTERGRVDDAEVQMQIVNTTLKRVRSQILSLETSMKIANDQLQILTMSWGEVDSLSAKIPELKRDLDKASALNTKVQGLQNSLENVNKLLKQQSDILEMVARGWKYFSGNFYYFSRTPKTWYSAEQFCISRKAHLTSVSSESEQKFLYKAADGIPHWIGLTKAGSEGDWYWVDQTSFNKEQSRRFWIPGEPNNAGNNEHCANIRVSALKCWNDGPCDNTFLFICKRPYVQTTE
Put plainly: Inhibition of mannan binding to mouse Langerin extracellular domain by ELLA assay.

The target in assay [6] is T2, C-type lectin domain family 4 member K. Kind of assay: Inhibition of mannan binding to mouse Langerin extracellular domain assessed as apparent dissociation constant by ELLA assay. The conditions noted are these: read-out: Kd(app).
A further assay relates to Ebolavirus. Put plainly: Antiviral activity against envelope pseudotyped Ebola virus in human Jurkat cells expressing DC-SIGN assessed as inhibition of viral infection. The format is functional, organism-based.
Assay [7] deals with Human immunodeficiency virus 1. Put plainly: Antiviral activity against HIV-1 in human CD4+Th cells expressing DC-SIGN assessed as inhibition of viral infection. The class given is functional, organism-based. The conditions noted are these: Human immunodeficiency virus 1, CD4+ve Th.

The structures appear in SMILES notation. Where a name gives a salt, the structure may show the parent alone.

C-type lectin domain family 4 member K (Homo sapiens, UniProt Q9UJ71), sequence (Q9UJ71 whole entry, the tested form may be a part): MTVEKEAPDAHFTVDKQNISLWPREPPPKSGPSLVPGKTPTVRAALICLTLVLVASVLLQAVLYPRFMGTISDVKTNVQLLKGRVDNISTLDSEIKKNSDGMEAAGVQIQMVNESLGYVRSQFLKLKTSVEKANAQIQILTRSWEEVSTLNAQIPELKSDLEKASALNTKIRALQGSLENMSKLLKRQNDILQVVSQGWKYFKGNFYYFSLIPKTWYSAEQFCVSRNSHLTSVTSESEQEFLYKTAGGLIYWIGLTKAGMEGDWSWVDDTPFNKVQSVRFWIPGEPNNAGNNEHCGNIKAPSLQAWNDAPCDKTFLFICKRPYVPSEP

As for `NC(=O)c1ccc(CCCC2Nc3ccc(C(=O)N4CCN(c5ncccn5)CC4)cc3NC2=O)cc1` (stereo unspecified), the inhibition turned out to be 77% in assay [1] and 53% in assay [2].
For `O=C(NCc1ccc(CO)cc1)[C@H]1C[C@H](OCCn2cc(COCCC(CCOCCn3cc(-c4cc(OCCOCCO)c(C#Cc5cc(OCCOCCO)c(C#Cc6cc(OCCOCCO)c(-c7cn(CCOCCC(CCOCc8cn(CCO[C@H]9C[C@H](C(=O)NCc%10ccc(CO)cc%10)[C@@H](C(=O)NCc%10ccc(CO)cc%10)C[C@@H]9O[C@H]9O[C@H](CO)[C@@H](O)[C@H](O)[C@@H]9O)nn8)(CCOCc8cn(CCO[C@H]9C[C@H](C(=O)NCc%10ccc(CO)cc%10)[C@@H](C(=O)NCc%10ccc(CO)cc%10)C[C@@H]9O[C@H]9O[C@H](CO)[C@@H](O)[C@H](O)[C@@H]9O)nn8)CCOCc8cn(CCO[C@H]9C[C@H](C(=O)NCc%10ccc(CO)cc%10)[C@@H](C(=O)NCc%10ccc(CO)cc%10)C[C@@H]9O[C@H]9O[C@H](CO)[C@@H](O)[C@H](O)[C@@H]9O)nn8)nn7)cc6OCCOCCO)cc5OCCOCCO)cc4OCCOCCO)nn3)(CCOCc3cn(CCO[C@H]4C[C@H](C(=O)NCc5ccc(CO)cc5)[C@@H](C(=O)NCc5ccc(CO)cc5)C[C@@H]4O[C@H]4O[C@H](CO)[C@@H](O)[C@H](O)[C@@H]4O)nn3)CCOCc3cn(CCO[C@H]4C[C@H](C(=O)NCc5ccc(CO)cc5)[C@@H](C(=O)NCc5ccc(CO)cc5)C[C@@H]4O[C@H]4O[C@H](CO)[C@@H](O)[C@H](O)[C@@H]4O)nn3)nn2)[C@@H](O[C@H]2O[C@H](CO)[C@@H](O)[C@H](O)[C@@H]2O)C[C@@H]1C(=O)NCc1ccc(CO)cc1`, it took 9.6 µM to reach half-maximal inhibition in assay [3] (IC50).
`C#CCO[C@H]1O[C@H](CO)[C@@H](O)[C@H](O)[C@@H]1NC(C)=O` returned a Ki in assay [4] of 48000 µM.
With `C#CCO[C@H]1O[C@H](CO)[C@@H](O)[C@H](O)[C@@H]1NC(=O)Cc1nnn[nH]1`, the Ki in assay [4] stood at 7600 µM.
In assay [4], `C#CCO[C@H]1O[C@H](CO)[C@@H](O)[C@H](O)[C@@H]1NC(=O)CS(=O)(=O)O` had a Ki of 1300 µM.
Consider `NS(=O)(=O)c1ccc(CCCC2Nc3ccc(C(=O)N4CCN(c5ccncc5)CC4)cc3NC2=O)cc1` (stereo unspecified), for which the inhibition in assay [1] turned out to be 92%; in assay [2], 79%.
With `O=C(NCCc1cn2c(n1)SCC2)c1cnc2sccn2c1=O`, in assay [5], the IC50 was 50 µM. The Kd in assay [6] amounted to 450 µM.
In the case of `[N-]=[N+]=NCCO[C@H]1C[C@H](C(=O)NCc2ccc(CO)cc2)[C@@H](C(=O)NCc2ccc(CO)cc2)C[C@@H]1O[C@H]1O[C@H](CO)[C@@H](O)[C@H](O)[C@@H]1O`, the IC50 in the assay with Ebolavirus (Orthoebolavirus, Jurkat) is less than 0.06 µM; in assay [7], 0.024 µM.
Turning to `CC(=O)NCCO[C@@H]1O[C@H](CO)[C@@H](O)[C@H](O)[C@H]1NS(=O)(=O)c1ccc(C)cc1`, the Ki in assay [4] came out at 320 µM.
`COC(=O)[C@H]1C[C@H](OCCN)[C@@H](O[C@H]2O[C@H](CO)[C@@H](O)[C@H](O)[C@@H]2O)C[C@@H]1C(=O)OC`: the IC50 with Ebolavirus (jurkat) is less than 0.06 µM; in assay [7] it was 0.024 µM.
In turn, `N[C@H]1C(O)O[C@H](CO)[C@@H](O)[C@@H]1O` (stereo partly specified) [GLUCOSAMINE SULFATE] showed a Ki in assay [4] of 1400 µM.
